Here are results for twelve compounds from publication PMC9085577, “Discovery of a Potent and Orally Active Dual GPBAR1/CysLT1R Modulator for the Treatment of Metabolic Fatty Liver Disease” (Frontiers in Pharmacology, 2022).

Values after ≈ are worked out from the molar mass of the structure shown. Like-named read-outs stand apart in the source and are kept apart here.

In one data set the target is T1, human GPBAR1 (Homo sapiens, UniProt Q8TDU6).
T1 construct: expressed in transfected cells; host or cells: HEK-293T cells, transient transfection (Fugene HD)
T1 sequence (Q8TDU6 1-330): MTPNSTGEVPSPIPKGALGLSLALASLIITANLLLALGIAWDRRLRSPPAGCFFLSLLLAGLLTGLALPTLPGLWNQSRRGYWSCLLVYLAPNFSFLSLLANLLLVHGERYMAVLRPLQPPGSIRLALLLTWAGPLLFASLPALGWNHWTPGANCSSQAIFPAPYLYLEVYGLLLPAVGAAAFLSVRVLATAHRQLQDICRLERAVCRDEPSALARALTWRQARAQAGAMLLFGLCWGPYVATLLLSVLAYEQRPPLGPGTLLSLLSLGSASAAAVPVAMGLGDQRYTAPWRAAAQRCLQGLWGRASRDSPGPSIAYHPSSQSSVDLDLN
Briefly: GPBAR1 CRE-luciferase reporter transactivation assay in HEK-293T cells. The class given is cell-based. To be noted: HEK-293T; compound 10 µM relative to TLCA (10 μM) as 100, CRE transactivation, HEK293T cells; read-out: GPBAR1 Eff (%) maximum efficacy. As for the experimental part:
GPBAR1. […] At 18 h post stimulations, cellular lysates were assayed for luciferase and Renilla activities using the Dual-Luciferase Reporter assay system (E1980, Promega Madison WI). Luminescence was measured using Glomax 20/20 luminometer (Promega, Madison WI). Luciferase activities were normalized with Renilla activities.
Agonistic activities of compounds on GPBAR1 were compared to TLCA, which was set as 100%.
A general note: A reporter such as luciferase makes a cellular process visible.

Another data set deals with T2, Human CysLT1 (LTD4) (Homo sapiens, UniProt Q9Y271).
T2 construct: Eurofins Cerep-Panlabs (France), contract assay
T2 sequence (Q9Y271 1-337): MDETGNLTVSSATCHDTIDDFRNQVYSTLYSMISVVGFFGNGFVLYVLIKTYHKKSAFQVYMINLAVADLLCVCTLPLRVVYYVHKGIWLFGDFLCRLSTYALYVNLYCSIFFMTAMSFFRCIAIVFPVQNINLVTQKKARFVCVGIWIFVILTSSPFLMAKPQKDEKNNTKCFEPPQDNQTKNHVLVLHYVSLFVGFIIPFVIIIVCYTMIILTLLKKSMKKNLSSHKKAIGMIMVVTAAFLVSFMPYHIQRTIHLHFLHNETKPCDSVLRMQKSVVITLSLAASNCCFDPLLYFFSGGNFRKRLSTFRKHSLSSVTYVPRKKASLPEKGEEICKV
Briefly: Human CysLT1 (LTD4) antagonist effect cellular functional assay (Ca2+ fluorescence, Eurofins Cerep-Panlabs). The class given is cell-based. To be noted: for IC50: 0.1 nM LTD4. As for the experimental part:
Human CysLT1 (LTD4) (h) (antagonist effect) Cellular Functional Assay. These assays were performed at Eurofins Cerep-Panlabs (France). The cells were suspended in DMEM buffer (Invitrogen) and then distributed in microplates at a density of 3.104 cells/well. […] Thereafter, the assay plates are positioned in a microplate reader (CellLux, PerkinElmer), which was used for the addition of the test compound or HBSS buffer, then 5 min later, 0.1 nM LTD4 or HBSS buffer (basal control), and measured the changes in fluorescence intensity, which varies proportionally to the free cytosolic Ca^2+-ion concentration.

Details of data set [1]: method as in Fiorillo et al., 2021. To be noted: ref Fiorillo et al., 2021; cited from earlier work.
Details of data set [2]: method as in Fiorillo et al., 2021. The settings on record: ref Fiorillo et al., 2021; cited from earlier work. This is another data set of the same source.
On the set-up of data set [3]: method as in Fiorillo et al., 2021. To be noted: pH 7.4; ref Fiorillo et al., 2021; cited from earlier work.
Details of data set [4]: method as in Fiorillo et al., 2021. To be noted: aqueous, pH 7.4; ref Fiorillo et al., 2021; cited from earlier work.
Setting [5] is: antagonist effect, read-out: CysLT1R IC50.

What is called IC50 is the concentration that inhibits the measured activity by half. Usually LogD stands for lipophilicity at a set pH, counting ionised and neutral species. A word on the Solubility: it is the dissolved amount per volume that the medium holds.

Turning to `COC(=O)c1cccc(-c2ccc(OCc3ccc4ccccc4n3)cc2)c1` [Compound 1, Methyl 4'-(quinolin-2-ylmethoxy)-[1,1′-biphenyl]-3-carboxylate], at human GPBAR1, the Emax was 56.9 ± 7.8%.

Regarding `OCc1cccc(-c2ccc(OCc3ccc4ccccc4n3)cc2)c1` [Compound 3, (4'-(quinolin-2-ylmethoxy)-[1,1′-biphenyl]-3-yl)-methanol], at Human CysLT1 (LTD4) (antagonist effect), the “CysLT1R efficacy (percent inhibition of the control response to 0.1 nM LTD4)” value is given as 59 ± 3.6%. The Emax on human GPBAR1 is 2.1 ± 0.06%.

With `COC(=O)c1ccc(-c2ccc(OCc3ccc4ccccc4n3)cc2)cc1` [Compound 4, Methyl 4'-(quinolin-2-ylmethoxy)-[1,1′-biphenyl]-4-carboxylate], the Emax at human GPBAR1 amounted to 13.5 ± 1%.

Regarding `O=C(O)c1ccc(-c2ccc(OCc3ccc4ccccc4n3)cc2)cc1` [Compound 5, 4'-(quinolin-2-ylmethoxy)-[1,1′-biphenyl]-4-carboxylic acid], the Emax at human GPBAR1 was found to be 36.7 ± 3%.

With `OCc1ccc(-c2ccc(OCc3ccc4ccccc4n3)cc2)cc1` [Compound 6, (4'-(quinolin-2-ylmethoxy)-[1,1′-biphenyl]-4-yl)-methanol], the “CysLT1R efficacy (percent inhibition of the control response to 0.1 nM LTD4)” value on Human CysLT1 (LTD4) (antagonist effect) is 0.8 ± 1.5%. Besides, on human GPBAR1, the Emax was determined as 64.9 ± 13%.

On to `COC(=O)CCCCOc1cccc(OCc2ccc3ccccc3n2)c1` [Compound 7], for which the “CysLT1R efficacy (percent inhibition of the control response to 0.1 nM LTD4)” value on Human CysLT1 (LTD4) (antagonist effect) is 76 ± 9.6%. On Human CysLT1 (LTD4) (setting [5]), the IC50 turned out to be 1680 ± 280 nM. Further, at human GPBAR1, the Emax stood at 20.5 ± 2.4%.

Consider `O=C(O)CCCCOc1cccc(OCc2ccc3ccccc3n2)c1` [Compound 8], for which the “CysLT1R efficacy (percent inhibition of the control response to 0.1 nM LTD4)” value at Human CysLT1 (LTD4) (antagonist effect) was 99.6 ± 2.0%. On Human CysLT1 (LTD4) (setting [5]), the IC50 came out at 900 ± 500 nM. For the same compound, the Emax at human GPBAR1 was found to be 12 ± 1.3%.

`OCCCCCOc1cccc(OCc2ccc3ccccc3n2)c1` [Compound 9, 5-(3-(quinolin-2-ylmethoxy)phenoxy)-pentan-1-ol]: at Human CysLT1 (LTD4) (antagonist effect), the “CysLT1R efficacy (percent inhibition of the control response to 0.1 nM LTD4)” value was found to be 106.9 ± 1.6%. For the same compound, the concentration for half-maximal inhibition (IC50) at Human CysLT1 (LTD4) (setting [5]) is 360 ± 580 nM. The Emax on human GPBAR1 amounted to 30.8 ± 7.5%.

As to `COC(=O)CCCOc1cccc(OCc2ccc3ccccc3n2)c1` [Compound 10, Methyl 4-(3-(quinolin-2-ylmethoxy)phenoxy)-butanoate], the “CysLT1R efficacy (percent inhibition of the control response to 0.1 nM LTD4)” value at Human CysLT1 (LTD4) (antagonist effect) is on record as 92.1 ± 3.4%. Besides, the IC50 at Human CysLT1 (LTD4) (setting [5]) amounted to 1550 ± 430 nM. In addition, at human GPBAR1, the Emax stood at 20.2 ± 4.5%.

As to `O=C(O)CCCOc1cccc(OCc2ccc3ccccc3n2)c1` [Compound 11, 4-(3-(quinolin-2-ylmethoxy)phenoxy)-butanoic acid], on Human CysLT1 (LTD4) (antagonist effect), the “CysLT1R efficacy (percent inhibition of the control response to 0.1 nM LTD4)” value stood at 92.8 ± 2.3%. The Emax on human GPBAR1 was 18.3 ± 4.8%.

Regarding `OCCCCOc1cccc(OCc2ccc3ccccc3n2)c1` [Compound 12, 4-(3-(quinolin-2-ylmethoxy)phenoxy)-butan-1-ol], on Human CysLT1 (LTD4) (antagonist effect), the “CysLT1R efficacy (percent inhibition of the control response to 0.1 nM LTD4)” value came out at 108.6 ± 1.8%. For the same compound, on Human CysLT1 (LTD4) (setting [5]), the IC50 is 310 ± 240 nM. For the same compound, the Emax on human GPBAR1 stood at 12.8 ± 3.3%.

The compound `CCCCCC(O)c1cccc(OCc2ccc3ccccc3n2)c1` (stereo not drawn) [REV5901, alpha-pentyl-3-[2-quinolinylmethoxy] benzyl alcohol] gave an IC50 on Human CysLT1 (LTD4) (CysLT1R IC50, antagonist effect) of 2500 ± 1200 nM. In data set [1], the “Microsomes Clint” value is given as 63 μl/min/mg protein and the “Microsomes t1/2” value is 37 min. Further, in data set [2], the “S9 fraction Clint” value is 40 μl/min/mg protein and the “S9 fraction t1/2” value is 57 min. For the same compound, in data set [3], the LogD was 3.1. Moreover, the Solubility in data set [4] is 39.3 µM (≈ 13.2 µg/mL).
